Reference: patent US10188704B2, “Enhanced melanoma cancer prevention by novel melanotropins” (ARIZONA BOARD OF REGENTS ON BEHALF OF THE UNIVERSITY OF …, priority 2015, dated 2019)
Read-outs that look alike come from different tables or passages of the source.

Columns and labels:
[1] = target: T1, hMC5R (Homo sapiens, UniProt P33032); assay: Competition binding assay with [125I]-NDP-α-MSH, whole HEK293 cells expressing hMC5R; parameters: expressed in transfected cells; host or cells: HEK293; settings: for MC5R % BE (Percent Binding Efficiency): maximal % of 125I-NDP-α-MSH displacement observed at 10 μM
[2] = target: T2, hMC4R (Homo sapiens, UniProt P32245); assay: Competition binding assay with [125I]-NDP-α-MSH, whole HEK293 cells expressing hMC4R; parameters: expressed in transfected cells; host or cells: HEK293; settings: for MC4R % BE (Percent Binding Efficiency): maximal % of 125I-NDP-α-MSH displacement observed at 10 μM
[3] = target: T3, hMC3R (Homo sapiens, UniProt P41968); assay: Competition binding assay with [125I]-NDP-α-MSH, whole HEK293 cells expressing hMC3R; parameters: expressed in transfected cells; host or cells: HEK293; settings: for MC3R % BE (Percent Binding Efficiency): maximal % of 125I-NDP-α-MSH displacement observed at 10 μM
[4] = target: T4, hMC1R (Homo sapiens, UniProt Q01726); assay: Competition binding assay with [125I]-NDP-α-MSH, whole HEK293 cells expressing hMC1R; settings: for IC50 / MC1R % BE (Percent Binding Efficiency): Table 4; for IC50: 50% specific binding (N = 4), NB = 0% of 125I-NDP-α-MSH displacement observed at 10 μM, read-out: MC1R IC50; for MC1R % BE (Percent Binding Efficiency): maximal % of 125I-NDP-α-MSH displacement observed at 10 μM; for selectivity towards hMC1R (binding, versus hMC3R, hMC4R, hMC5R): statement in words, refers to Table 4
T4 construct: expressed in transfected cells; host or cells: HEK293

[5] = in vitro; format: in vitro ADME
[6] = target: T1, hMC5R; assay: cAMP assay (intracellular cAMP accumulation) at hMC5R; format: cell-based; parameters: expressed in transfected cells; settings: Table 2; for Emax: cAMP activity, read-out: hMC5R % max effect
[7] = target: T3, hMC3R; assay: cAMP assay (intracellular cAMP accumulation) at hMC3R; format: cell-based; parameters: expressed in transfected cells; settings: Table 2; for EC50: 50% maximal intracellular cAMP accumulation (N = 4), tested 10^-10 to 10^-5 M
[8] = target: T4, hMC1R; assay: cAMP assay (intracellular cAMP accumulation) at hMC1R; format: cell-based; settings: Table 2; cAMP activity; read-out: hMC1R % max effect
[9] = target: T2, hMC4R; assay: cAMP assay (intracellular cAMP accumulation) at hMC4R; format: cell-based; parameters: expressed in transfected cells; settings: Table 2; for Emax: cAMP activity, read-out: hMC4R % max effect
[10] = Table 4, 50% specific binding (N = 4), NB = 0% of 125I-NDP-α-MSH displacement observed at 10 μM, read-out: MC5R IC50
[11] = Table 4, 50% specific binding (N = 4), NB = 0% of 125I-NDP-α-MSH displacement observed at 10 μM, read-out: MC4R IC50
[12] = Table 4, 50% specific binding (N = 4), NB = 0% of 125I-NDP-α-MSH displacement observed at 10 μM, read-out: MC3R IC50
[13] = Table 2, concentration of peptide at 50% specific binding (N = 4), tested 10^-10 to 10^-5 M, read-out: hMC5R IC50
[14] = Table 2, concentration of peptide at 50% specific binding (N = 4), tested 10^-10 to 10^-5 M, read-out: hMC3R IC50
[15] = 50% maximal intracellular cAMP accumulation (N = 4), tested 10^-10 to 10^-5 M

T4 sequence (Q01726 whole entry): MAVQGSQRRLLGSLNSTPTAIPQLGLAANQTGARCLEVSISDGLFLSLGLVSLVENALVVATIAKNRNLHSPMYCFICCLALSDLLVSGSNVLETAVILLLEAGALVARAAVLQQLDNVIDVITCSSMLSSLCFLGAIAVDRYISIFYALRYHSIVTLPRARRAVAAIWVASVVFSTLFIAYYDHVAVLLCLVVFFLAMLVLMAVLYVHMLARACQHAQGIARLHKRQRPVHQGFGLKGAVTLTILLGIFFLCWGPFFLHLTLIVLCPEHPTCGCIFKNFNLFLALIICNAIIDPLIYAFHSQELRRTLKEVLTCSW
T2 sequence (P32245 whole entry): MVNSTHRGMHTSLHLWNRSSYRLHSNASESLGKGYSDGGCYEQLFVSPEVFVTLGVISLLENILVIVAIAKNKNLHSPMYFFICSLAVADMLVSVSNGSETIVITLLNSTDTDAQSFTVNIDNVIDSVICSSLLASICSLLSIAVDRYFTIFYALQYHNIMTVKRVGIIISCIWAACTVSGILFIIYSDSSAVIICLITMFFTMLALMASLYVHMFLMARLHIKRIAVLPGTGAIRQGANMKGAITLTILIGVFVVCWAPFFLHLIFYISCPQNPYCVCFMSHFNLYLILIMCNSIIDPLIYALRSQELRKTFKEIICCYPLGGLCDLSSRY
T1 sequence (P33032 whole entry): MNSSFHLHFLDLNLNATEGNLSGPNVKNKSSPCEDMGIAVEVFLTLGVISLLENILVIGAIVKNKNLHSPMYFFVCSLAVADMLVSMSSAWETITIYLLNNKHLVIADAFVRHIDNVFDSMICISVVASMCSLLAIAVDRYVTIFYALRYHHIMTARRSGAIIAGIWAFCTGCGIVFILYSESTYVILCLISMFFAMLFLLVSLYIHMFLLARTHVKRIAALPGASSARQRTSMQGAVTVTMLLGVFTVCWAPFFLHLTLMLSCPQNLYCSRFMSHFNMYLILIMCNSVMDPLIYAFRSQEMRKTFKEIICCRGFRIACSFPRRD
T3 sequence (P41968 whole entry): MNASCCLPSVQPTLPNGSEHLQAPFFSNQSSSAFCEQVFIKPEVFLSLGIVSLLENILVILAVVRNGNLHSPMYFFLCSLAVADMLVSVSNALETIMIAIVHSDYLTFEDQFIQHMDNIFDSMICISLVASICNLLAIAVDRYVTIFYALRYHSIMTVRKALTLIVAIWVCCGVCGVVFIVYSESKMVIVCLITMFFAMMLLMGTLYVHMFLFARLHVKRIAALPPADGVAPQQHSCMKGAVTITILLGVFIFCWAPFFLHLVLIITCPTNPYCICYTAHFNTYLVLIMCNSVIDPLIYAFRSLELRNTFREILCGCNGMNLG

| Compound | IC50 [1, 10] [nM] | MC5R % BE (Percent Binding Efficiency) ([1]; Table 4) [%] | IC50 [2, 11] [nM] | MC4R % BE (Percent Binding Efficiency) ([2]; Table 4) [%] | IC50 [3, 12] [nM] | MC3R % BE (Percent Binding Efficiency) ([3]; Table 4) [%] | IC50 [4] [nM] | MC1R % BE (Percent Binding Efficiency) [4] [%] | further results |
| --- | --- | --- | --- | --- | --- | --- | --- | --- | --- |
| CCCC[C@H](NC(=O)[C@@H](NC(=O)[C@@H](N)Cc1ccc(O)cc1)C(C)C)C(=O)NCC(=O)N[C@@H](Cc1cnc[nH]1)C(=O)N[C@H](Cc1ccc2ccccc2c1)C(=O)N[C@@H](CCCN=C(N)N)C(=O)N[C@H](Cc1c[nH]c2ccccc12)C(=O)N[C@@H](CC(=O)O)C(=O)N[C@@H](CCCN=C(N)N)C(=O)N[C@@H](Cc1ccccc1)C(=O)NCC(N)=O [SEQ ID NO. 11, H-Tyr-Val-Nle-Gly-His-D-Nal(2′)-Arg-D-Trp-Asp-Arg-Phe-Gly-NH2] |  |  |  |  |  |  |  |  | IC50 [1, 13]: 3.5 ± 0.5 nM; half-life [5]: 52 min; IC50 [3, 14]: 5 ± 0.6 nM; Emax [6]: 6%; EC50 [7]: 300 ± 6 nM; Emax ([7]; cAMP activity, read-out: hMC3R % max effect): 6%; Emax [8]: 70% |
| CCCC[C@H](NC(=O)[C@@H](NC(=O)[C@H](Cc1ccc(O)cc1)NC(C)=O)C(C)C)C(=O)NCC(=O)N[C@@H](Cc1c[nH]cn1)C(=O)N[C@H](Cc1ccccc1)C(=O)N[C@@H](CCCNC(=N)N)C(=O)N[C@@H](Cc1c[nH]c2ccccc12)C(=O)N[C@@H](CC(=O)O)C(=O)N[C@@H](CCCNC(=N)N)C(=O)N[C@@H](Cc1ccccc1)C(=O)NCC(N)=O [SEQ ID NO. 12, Ac-Tyr-Val-Nle-Gly-His-D-Phe-Arg-Trp-Asp-Arg-Phe-Gly-NH2, reference compound] |  |  |  |  |  |  |  |  | Emax [9]: 100% |
| H-YVLGHFLFDRFG-NH2 [SEQ ID NO. 5] [listing 1 of 2 here] |  | 0 |  | 58 |  | 45 |  | 100 | selectivity towards hMC1R (binding, versus hMC3R, hMC4R, hMC5R) [4]: highly selective for MC1R; selectivity towards hMC1R (binding, versus hMC3R, hMC4R, hMC5R) ([4]; listed as Peptide 5): significant selectivity towards hMC1R |
| H-YVLGHFLFDRFG-NH2 [SEQ ID NO. 5] [listing 2 of 2 here] |  |  | 3210 |  | > 10000 |  | 22 |  |  |
| H-YVLGHFLWDRFG-NH2 [SEQ ID NO. 4] [listing 1 of 2 here] |  | 57 |  | 47 |  | 26 |  | 100 |  |
| H-YVLGHFLWDRFG-NH2 [SEQ ID NO. 4] [listing 2 of 2 here] | 7.3 |  | > 10000 |  | 1880 |  | 1480 |  |  |
| H-YVLGPFLWDRFG-NH2 [SEQ ID NO. 6] | 1.7 | 32 | 13 | 29 | 40 | 32 |  |  |  |
| H-YVLGPFRFDRFG-NH2 [SEQ ID NO. 3] |  | 0 |  | 0 | 1250 | 33 |  | 0 |  |
| H-YVLGPFRWDRFG-NH2 [SEQ ID NO. 2] | 67 | 100 | 76 | 100 | 165 | 100 |  |  |  |
| H-YVMGPFRWDRFG-NH2 [SEQ ID NO. 10] |  |  |  |  |  |  |  |  | IC50 [1, 13]: 340 ± 40 nM; IC50 ([2]; Table 2, concentration of peptide at 50% specific binding (N = 4), tested 10^-10 to 10^-5 M, read-out: hMC4R IC50): 600 ± 70 nM; IC50 [3, 14]: 6.7 ± 1 nM; EC50 [9, 15]: 100 ± 11 nM; Emax [9]: 99%; EC50 [6, 15]: 82 ± 10 nM; Emax [6]: 97%; EC50 [7]: 0.33 ± 0.01 nM |

Continued, in another order:

| IC50 [1, 10] [nM] | MC5R % BE (Percent Binding Efficiency) ([1]; Table 4) [%] | IC50 [2, 11] [nM] | MC4R % BE (Percent Binding Efficiency) ([2]; Table 4) [%] | IC50 [3, 12] [nM] | MC3R % BE (Percent Binding Efficiency) ([3]; Table 4) [%] | IC50 [4] [nM] | MC1R % BE (Percent Binding Efficiency) [4] [%] | Compound | further results |
| --- | --- | --- | --- | --- | --- | --- | --- | --- | --- |
| > 10000 | 60 | 1020 | 100 | 1620 | 53 | 198 |  | CC(C)C[C@H](NC(=O)[C@@H](NC(=O)[C@@H](N)Cc1ccc(O)cc1)C(C)C)C(=O)NCC(=O)N[C@@H](Cc1c[nH]cn1)C(=O)N[C@@H](Cc1ccccc1)C(=O)N[C@@H](CCCNC(=N)N)C(=O)N[C@@H](Cc1c[nH]c2ccccc12)C(=O)N[C@@H](CC(=O)O)C(=O)N[C@@H](CCCNC(=N)N)C(=O)N[C@@H](Cc1ccccc1)C(=O)NCC(N)=O [SEQ ID NO. 9] |  |
| 5.3 | 34 | 58 | 36 | 1400 | 47 | 11 | 32 | H-YVLGPFLFDRFG-NH2 [SEQ ID NO. 7] |  |
